Measurements taken from patent US20230172189A1, “Methods for Extending the Shelf-life of Stored Donor Blood and/or Red Blood Cells and Treated Red Blood Cell Compositions Produced Thereby” (Ohio University, priority 2020, published 2023).

Legend:
[1] = system: RBCs; assay: Hemolysis of RBCs during lipid exchange (UV-Vis absorbance at 541 nm); type: cell-based; settings: for hemolysis of RBCs during lipid exchange: exogenous lipid loaded into MαCD, one hour incubation
Protocol: The release of hemoglobin from the RBCs is considered as a sign of disrupting the cell membrane and consequently extracting the inner leaflet.
The hemolysis of RBCs during lipid exchange was measured using UV-Vis spectroscopy.
Presence of hemoglobin in the exchange solution is believed to be a disruption of the RBCs, lead to extracting the inner leaflet of the membrane. To monitor the amount of hemolysis after the exchange, the cells were centrifuged at 750×g for 5 minutes, 200 μL of the supernatant was collected, and its absorbance at 541 nm was measured using a plate reader. RBCs suspended in DPBS and water for 1 hour, at the same hematocrit concentrations as the ones used for exchange experiments, were used as negative and positive controls for the hemolysis. Both controls were also centrifuged at 750×g for 5 minutes.

[2] = system: RBCs; assay: Confocal microscopy of RBCs after exchange with a fluorescent lipid; type: cell-based; settings: 19:1 POPS:NBD-PE, one hour incubation, with or without MαCD
Protocol: To confirm that MαCD mediates the lipid exchange and that the lipids are exchanged with the outer leaflet only, confocal microscopy was performed on the RBCs after the exchange. A mixture of POPS and 1,2-dipalmitoyl-sn-glycero-3-phosphoethanolamine-N-(7-nitro-2-1,3-benzoxadiazol-4-yl) (NBD-PE) with a molar ratio 19:1 POPS:NBD-PE was used. RBCs are incubated for one hour with the lipid mixture without MαCD (FIG. 2A) or with the lipid mixture loaded into MαCD (FIG. 2B).
Delivering of the phospholipids to the membrane was studied using fluorescence. A quenching agent was used to diminish the fluorescence to examine whether the lipids were delivered to the outer or inner leaflet. Organic solutions of a fluorescent phospholipid (NBD-PE) and POPS were mixed to a molar ratio of 1:19 NBD-PE:POPS. The other steps prior to the exchange experiment were as mentioned before. After the exchange, the cells were centrifuged at 750×g for 5 minutes, the precipitated RBCs were collected, re-suspended in 10% sucrose in DPBS, loaded onto a glass slide, and imaged using a confocal microscope. Sodium dithionite solution was made to a concentration of 50 mM and was added to an aliquot of the exchanged RBCs 1 minute prior to loading onto glass slides and imaging.

Row | Molecule | hemolysis of RBCs during lipid exchange [1] | mediation of lipid exchange with RBC outer leaflet [2] | capability of mediating the exchange process ([1]; two MαCD concentrations tested during optimisation)
1 | CCCCCCCC/C=C\CCCCCCCC(=O)OC(COC(=O)CCCCCCCCCCCCCCC)COP(=O)([O-])OCC[N+](C)(C)C (stereo not shown) [POPC, 1-palmitoyl-2-oleoyl-glycero-3-phosphocholine] | lowest hemolysis |  | 
2 | methyl-α-cyclodextrin [MαCD] |  | lipid exchange only occurs in the presence of MαCD | both concentrations were capable of mediating the exchange process
3 | CCCCCCCC/C=C\CCCCCCCC(=O)O[C@H](COC(=O)CCCCCCCCCCCCCCC)COP(=O)(O)OC[C@H](N)C(=O)O [POPS, 1-palmitoyl-2-oleoyl-sn-glycero-3-phospho-L-serine] | lowest hemolysis |  | 
